Experimental data published in the supplement of paper PMC11451515.

Test system: SEM cells
Test: cell viability relative to DMSO control; higher = less cytotoxic
Conditions: 48 h
Outline: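 Leukemia cells (NOMO1 or SEM, 500 cells/well; P12-Ichikawa, 1000 cells/well) were seeded in 5 μl in 1536-well plates after at least four passages of adaptation to each medium. They received library compounds in DMSO by pin dosing, 11 threefold points from 47 μM to 0.79 nM. Luminescence with CellTiter-Glo One was read after 48 h at 37°C. Viability is stated per plate relative to DMSO wells, with cell-free wells as background.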

[1] = HPLM + 10% dialyzed FBS, 0.000781 µM
[2] = HPLM + 10% dialyzed FBS, 0.00234 µM
[3] = HPLM + 10% dialyzed FBS, 0.00702 µM
[4] = HPLM + 10% dialyzed FBS, 0.0211 µM
[5] = HPLM + 10% dialyzed FBS, 0.0632 µM
[6] = HPLM + 10% dialyzed FBS, 0.19 µM
[7] = HPLM + 10% dialyzed FBS, 0.569 µM
[8] = HPLM + 10% dialyzed FBS, 1.71 µM
[9] = HPLM + 10% dialyzed FBS, 5.12 µM
[10] = HPLM + 10% dialyzed FBS, 15.4 µM
[11] = HPLM + 10% dialyzed FBS, 46.1 µM
[12] = RPMI 5 mM glucose + 10% FBS, 0.000781 µM
[13] = RPMI 5 mM glucose + 10% FBS, 0.00234 µM
[14] = RPMI 5 mM glucose + 10% FBS, 0.00702 µM
[15] = RPMI 5 mM glucose + 10% FBS, 0.0211 µM
[16] = RPMI 5 mM glucose + 10% FBS, 0.0632 µM
[17] = RPMI 5 mM glucose + 10% FBS, 0.19 µM
[18] = RPMI 5 mM glucose + 10% FBS, 0.569 µM
[19] = RPMI 5 mM glucose + 10% FBS, 1.71 µM
[20] = RPMI 5 mM glucose + 10% FBS, 5.12 µM
[21] = RPMI 5 mM glucose + 10% FBS, 15.4 µM
[22] = RPMI 5 mM glucose + 10% FBS, 46.1 µM
[23] = RPMI 5 mM glucose + 10% dialyzed FBS, 0.000781 µM
[24] = RPMI 5 mM glucose + 10% dialyzed FBS, 0.00234 µM
[25] = RPMI 5 mM glucose + 10% dialyzed FBS, 0.00702 µM
[26] = RPMI 5 mM glucose + 10% dialyzed FBS, 0.0211 µM
[27] = RPMI 5 mM glucose + 10% dialyzed FBS, 0.0632 µM
[28] = RPMI 5 mM glucose + 10% dialyzed FBS, 0.19 µM
[29] = RPMI 5 mM glucose + 10% dialyzed FBS, 0.569 µM
[30] = RPMI 5 mM glucose + 10% dialyzed FBS, 1.71 µM
[31] = RPMI 5 mM glucose + 10% dialyzed FBS, 5.12 µM
[32] = RPMI 5 mM glucose + 10% dialyzed FBS, 15.4 µM
[33] = RPMI 5 mM glucose + 10% dialyzed FBS, 46.1 µM

Compound | cell viability [1] [%] | cell viability [2] [%] | cell viability [3] [%] | cell viability [4] [%] | cell viability [5] [%] | cell viability [6] [%] | cell viability [7] [%] | cell viability [8] [%] | cell viability [9] [%] | cell viability [10] [%] | cell viability [11] [%] | cell viability [12] [%] | cell viability [13] [%] | cell viability [14] [%] | cell viability [15] [%] | cell viability [16] [%] | cell viability [17] [%] | cell viability [18] [%] | cell viability [19] [%] | cell viability [20] [%] | cell viability [21] [%] | cell viability [22] [%] | cell viability [23] [%] | cell viability [24] [%] | cell viability [25] [%] | cell viability [26] [%] | cell viability [27] [%] | cell viability [28] [%] | cell viability [29] [%] | cell viability [30] [%] | cell viability [31] [%] | cell viability [32] [%] | cell viability [33] [%]
CC(O)(C[S+](=O)([O-])c1ccc(F)cc1)C(=O)Nc1ccc(C#N)c(C(F)(F)F)c1 (stereo not drawn) | 86.8 | 96.4 | 91 | 80.3 | 85.2 | 96.2 | 96.2 | 93.5 | 97.4 | 83.2 | 73.9 | 84.9 | 83.6 | 98 | 87 | 88.7 | 103 | 96.3 | 96.5 | 91.8 | 76.8 | 62.9 | 87.2 | 84.4 | 98.1 | 94.8 | 80 | 102 | 86.8 | 102 | 99.1 | 72.3 | 55
COC(=O)CCC1=C(C)C2=CC3=NC(=CC4=C(C)C(=C([NH]4)C=C\5N=C(C=C1[NH]2)\C(=C5C)CCC(O)=O)C=C)\C6=C\C=C(/[C@@H](C(=O)OC)[C@@]36C)C(=O)OC | 88.5 | 83.3 | 89.7 | 85.4 | 94.2 | 94.4 | 98 | 95.7 | 91.7 | 82.7 | 77.4 | 89.4 | 92 | 91.8 | 94.9 | 95.2 | 98.1 | 87.7 | 98.9 | 95.4 | 89.7 | 75.4 | 86.6 | 90.7 | 101 | 108 | 105 | 122 | 104 | 108 | 105 | 91.3 | 80.4
COc1ccc(/C=C/C(=O)Nc2ccccc2C(=O)O)cc1OC | – | – | – | – | – | – | – | – | – | – | – | 109 | 140 | 118 | 130 | 99.4 | 97.5 | 110 | 116 | 125 | 106 | 104 | 94.7 | 115 | 110 | 108 | 35.1 | 115 | 96.7 | 110 | 116 | 129 | 96.7
COc1ccc(-n2c(C)c([N+](=O)[O-])c3ccc(O)cc32)cc1 | – | – | – | – | – | – | – | – | – | – | – | 102 | 103 | 111 | 107 | 120 | 109 | 108 | 122 | 127 | 121 | 98.5 | – | – | – | – | – | – | – | – | – | – | –
Cc1nnc(C(C)C)n1[C@@H]1C[C@H]2CC[C@@H](C1)N2CC[C@H](NC(=O)C1CCC(F)(F)CC1)c1ccccc1 | 83.1 | 90.9 | 95.8 | 95 | 77.2 | 98.3 | 105 | 98 | 102 | 64.9 | 57.1 | 78.9 | 74.3 | 82.2 | 93.4 | 86.1 | 103 | 84.9 | 85.6 | 86.1 | 43.6 | 38.6 | 84.6 | 90.5 | 101 | 90.1 | 88.9 | 103 | 87.8 | 103 | 105 | 51.8 | 40.2
CC(C)[C@H](C(=O)Nc1ccc(C(=O)NO)cc1)c1ccccc1 | – | – | – | – | – | – | – | – | – | – | – | 115 | 116 | 126 | 140 | 139 | 148 | 133 | 74.7 | 11.3 | 9.31 | 9.34 | 105 | 101 | 121 | 121 | 120 | 120 | 111 | 56.6 | 8.81 | 8.39 | 8.47
COCC(=O)NC/C=C/c1ccc2ncnc(Nc3ccc(Oc4ccc(C)nc4)c(C)c3)c2c1 | 87.2 | 87.7 | 87.1 | 96.4 | 92.4 | 92.3 | 108 | 90.3 | 82.2 | 89.1 | 66.5 | 102 | 105 | 124 | 95.2 | 105 | 98.8 | 103 | 97.8 | 93 | 99.9 | 34.6 | 78.8 | 82.9 | 93.6 | 95.6 | 101 | 86.8 | 94.2 | 91 | 71.6 | 88 | 49
O=C(O)c1cccc(-c2noc(-c3ccccc3F)n2)c1 | 106 | 109 | 92.3 | 100 | 101 | 110 | 102 | 104 | 104 | 92.3 | 88.1 | 88.1 | 94.7 | 105 | 94.1 | 99.6 | 107 | 101 | 99.3 | 98.3 | 84.3 | 73.5 | 87.1 | 106 | 106 | 108 | 115 | 94.2 | 122 | 112 | 108 | 95.7 | 85.7
Cc1nnc(C(=O)NC(C)(C)c2nc(C(=O)NCc3ccc(F)cc3)c(O)c(=O)n2C)o1 | 107 | 111 | 116 | 102 | 101 | 123 | 113 | 108 | 104 | 108 | 107 | 96.7 | 101 | 99.2 | 120 | 125 | 93.8 | 107 | 80.8 | 90.9 | 97 | 111 | 105 | 106 | 109 | 122 | 109 | 117 | 107 | 109 | 93.9 | 98.9 | 110
